ChEMBL document CHEMBL5291721, “A preclinical secondary pharmacology resource illuminates target-adverse drug reaction associations of marketed drugs” (Nat Commun, 2023)

Columns and labels:
Adenosine receptor A3 = target: T1, Adenosine receptor A3 (Homo sapiens, UniProt P0DMS8)
T1 sequence (P0DMS8 whole entry): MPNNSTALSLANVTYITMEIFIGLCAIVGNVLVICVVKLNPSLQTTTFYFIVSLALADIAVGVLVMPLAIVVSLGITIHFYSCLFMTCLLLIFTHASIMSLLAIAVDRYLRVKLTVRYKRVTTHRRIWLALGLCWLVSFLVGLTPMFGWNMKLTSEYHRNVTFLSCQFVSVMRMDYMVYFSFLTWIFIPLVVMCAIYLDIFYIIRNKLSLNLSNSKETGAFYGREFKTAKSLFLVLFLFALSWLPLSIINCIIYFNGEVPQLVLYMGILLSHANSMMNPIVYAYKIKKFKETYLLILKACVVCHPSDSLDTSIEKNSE

[1] = target: T2, 5-hydroxytryptamine receptor 3A (Homo sapiens, UniProt P46098); type: functional
T2 sequence (P46098 whole entry): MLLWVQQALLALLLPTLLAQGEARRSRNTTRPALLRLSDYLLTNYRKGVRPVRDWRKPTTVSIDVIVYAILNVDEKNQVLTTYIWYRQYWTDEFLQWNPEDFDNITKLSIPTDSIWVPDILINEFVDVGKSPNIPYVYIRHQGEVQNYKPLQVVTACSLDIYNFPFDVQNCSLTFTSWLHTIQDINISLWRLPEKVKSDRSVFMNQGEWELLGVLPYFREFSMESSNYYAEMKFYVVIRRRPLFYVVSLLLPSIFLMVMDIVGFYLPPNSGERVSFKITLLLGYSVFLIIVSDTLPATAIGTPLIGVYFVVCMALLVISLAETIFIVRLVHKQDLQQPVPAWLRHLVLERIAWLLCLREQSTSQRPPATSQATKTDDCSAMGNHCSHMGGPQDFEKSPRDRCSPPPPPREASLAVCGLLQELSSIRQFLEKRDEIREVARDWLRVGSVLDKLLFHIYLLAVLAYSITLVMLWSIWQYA

Adenosine receptor A2a = Adenosine receptor A2a (Homo sapiens, UniProt P29274)
Adenosine receptor A2a, sequence (P29274 whole entry): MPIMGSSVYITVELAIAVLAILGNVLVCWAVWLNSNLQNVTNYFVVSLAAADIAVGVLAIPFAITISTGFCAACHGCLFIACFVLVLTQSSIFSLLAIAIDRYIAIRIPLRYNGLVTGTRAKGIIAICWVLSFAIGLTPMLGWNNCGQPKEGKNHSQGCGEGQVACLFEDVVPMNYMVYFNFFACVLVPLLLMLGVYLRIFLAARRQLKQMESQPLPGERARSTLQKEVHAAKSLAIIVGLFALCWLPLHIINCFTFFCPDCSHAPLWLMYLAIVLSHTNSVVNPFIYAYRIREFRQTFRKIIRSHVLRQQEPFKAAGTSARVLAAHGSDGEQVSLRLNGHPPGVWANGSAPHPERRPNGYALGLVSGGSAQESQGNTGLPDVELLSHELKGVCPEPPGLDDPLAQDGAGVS

[2] = target: 3',5'-cyclic-AMP phosphodiesterase 4D (Homo sapiens, UniProt Q08499); type: functional
[3] = target: T3, Alpha-2A adrenergic receptor (Homo sapiens, UniProt P08913); type: functional, cell-based
T3 sequence (P08913 whole entry): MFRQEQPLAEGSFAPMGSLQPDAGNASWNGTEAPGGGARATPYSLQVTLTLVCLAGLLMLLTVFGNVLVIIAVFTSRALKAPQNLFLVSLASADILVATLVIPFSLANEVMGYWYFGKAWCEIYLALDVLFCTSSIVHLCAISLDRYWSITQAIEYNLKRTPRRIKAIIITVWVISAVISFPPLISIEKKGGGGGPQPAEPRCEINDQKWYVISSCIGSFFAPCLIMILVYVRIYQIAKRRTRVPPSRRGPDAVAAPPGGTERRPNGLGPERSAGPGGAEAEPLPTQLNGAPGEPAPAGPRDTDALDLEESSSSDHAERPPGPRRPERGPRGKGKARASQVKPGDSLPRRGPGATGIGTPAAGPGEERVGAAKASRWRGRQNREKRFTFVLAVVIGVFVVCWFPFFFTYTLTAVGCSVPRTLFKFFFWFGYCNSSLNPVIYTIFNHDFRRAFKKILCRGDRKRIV

Bile salt export pump = Bile salt export pump (Homo sapiens, UniProt O95342); type: functional
Bile salt export pump, sequence (O95342 whole entry): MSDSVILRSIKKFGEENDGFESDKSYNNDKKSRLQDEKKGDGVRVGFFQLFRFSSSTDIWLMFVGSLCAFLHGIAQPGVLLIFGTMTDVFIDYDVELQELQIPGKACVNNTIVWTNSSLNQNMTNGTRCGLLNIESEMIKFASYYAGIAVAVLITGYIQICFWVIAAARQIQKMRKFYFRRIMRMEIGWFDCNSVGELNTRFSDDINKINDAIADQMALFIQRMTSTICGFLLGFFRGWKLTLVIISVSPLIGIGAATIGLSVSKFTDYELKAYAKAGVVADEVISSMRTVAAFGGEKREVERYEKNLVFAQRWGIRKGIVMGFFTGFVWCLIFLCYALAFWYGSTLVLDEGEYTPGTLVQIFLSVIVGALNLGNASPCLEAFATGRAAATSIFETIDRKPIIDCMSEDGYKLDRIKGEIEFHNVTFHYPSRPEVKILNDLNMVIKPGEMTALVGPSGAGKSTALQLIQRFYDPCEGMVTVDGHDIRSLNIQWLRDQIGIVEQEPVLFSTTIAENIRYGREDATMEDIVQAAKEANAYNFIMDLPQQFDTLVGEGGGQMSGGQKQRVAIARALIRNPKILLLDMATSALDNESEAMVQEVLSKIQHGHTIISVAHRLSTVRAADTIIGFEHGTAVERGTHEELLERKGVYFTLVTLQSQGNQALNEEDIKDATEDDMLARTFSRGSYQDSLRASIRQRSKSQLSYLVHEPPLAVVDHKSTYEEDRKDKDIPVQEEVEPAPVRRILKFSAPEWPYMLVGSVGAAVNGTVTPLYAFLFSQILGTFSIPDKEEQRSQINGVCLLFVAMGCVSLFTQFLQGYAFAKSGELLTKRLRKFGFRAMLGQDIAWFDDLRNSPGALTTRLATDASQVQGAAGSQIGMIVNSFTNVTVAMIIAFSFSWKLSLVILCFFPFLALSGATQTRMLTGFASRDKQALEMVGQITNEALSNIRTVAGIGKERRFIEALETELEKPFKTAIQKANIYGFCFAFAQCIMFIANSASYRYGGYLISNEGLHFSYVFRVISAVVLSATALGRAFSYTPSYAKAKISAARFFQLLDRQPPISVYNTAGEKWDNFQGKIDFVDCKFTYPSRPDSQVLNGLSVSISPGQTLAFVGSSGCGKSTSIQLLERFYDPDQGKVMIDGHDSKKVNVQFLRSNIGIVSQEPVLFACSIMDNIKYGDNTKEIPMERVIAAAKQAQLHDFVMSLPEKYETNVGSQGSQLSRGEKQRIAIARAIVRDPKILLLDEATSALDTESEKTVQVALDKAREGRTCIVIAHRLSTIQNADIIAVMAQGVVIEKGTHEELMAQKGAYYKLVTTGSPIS

[4] = target: T4, 5-hydroxytryptamine receptor 1A (Homo sapiens, UniProt P08908); type: functional, cell-based
T4 sequence (P08908 whole entry): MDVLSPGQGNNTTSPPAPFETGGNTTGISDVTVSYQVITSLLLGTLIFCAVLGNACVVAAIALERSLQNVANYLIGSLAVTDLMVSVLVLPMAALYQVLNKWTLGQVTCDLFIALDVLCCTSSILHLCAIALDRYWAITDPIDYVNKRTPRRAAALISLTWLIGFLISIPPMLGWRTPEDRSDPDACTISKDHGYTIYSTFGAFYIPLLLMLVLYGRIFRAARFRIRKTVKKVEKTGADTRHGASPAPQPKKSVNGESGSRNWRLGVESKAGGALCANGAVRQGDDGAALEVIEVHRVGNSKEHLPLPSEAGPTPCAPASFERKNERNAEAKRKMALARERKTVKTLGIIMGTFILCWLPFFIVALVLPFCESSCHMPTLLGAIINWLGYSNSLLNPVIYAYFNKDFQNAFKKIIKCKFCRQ

[5] = target: Growth hormone secretagogue receptor type 1 (Homo sapiens, UniProt Q92847)
Growth hormone secretagogue receptor type 1, sequence (Q92847 whole entry): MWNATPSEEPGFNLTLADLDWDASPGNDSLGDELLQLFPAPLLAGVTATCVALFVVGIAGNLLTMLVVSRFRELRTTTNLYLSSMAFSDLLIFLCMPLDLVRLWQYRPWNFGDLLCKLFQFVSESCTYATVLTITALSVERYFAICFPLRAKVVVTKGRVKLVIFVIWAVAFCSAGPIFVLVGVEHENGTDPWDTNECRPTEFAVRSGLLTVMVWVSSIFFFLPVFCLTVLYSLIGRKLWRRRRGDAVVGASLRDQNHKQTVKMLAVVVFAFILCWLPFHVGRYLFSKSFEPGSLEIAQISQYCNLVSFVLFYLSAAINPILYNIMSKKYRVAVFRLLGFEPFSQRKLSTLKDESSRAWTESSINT

Melanocortin receptor 3 = Melanocortin receptor 3 (Homo sapiens, UniProt P41968)
Melanocortin receptor 3, sequence (P41968 whole entry): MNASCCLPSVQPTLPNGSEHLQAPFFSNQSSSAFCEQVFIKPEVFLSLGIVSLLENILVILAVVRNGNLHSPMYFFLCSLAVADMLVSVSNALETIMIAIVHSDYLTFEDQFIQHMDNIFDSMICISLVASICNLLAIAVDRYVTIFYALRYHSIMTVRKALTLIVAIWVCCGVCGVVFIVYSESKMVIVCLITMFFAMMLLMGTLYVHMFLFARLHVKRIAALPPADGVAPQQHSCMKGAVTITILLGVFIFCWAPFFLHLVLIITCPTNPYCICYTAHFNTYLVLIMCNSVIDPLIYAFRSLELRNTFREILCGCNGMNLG

[6] = target: Voltage-gated inwardly rectifying potassium channel KCNH2 (Homo sapiens, UniProt Q12809); type: functional; conditions: read-out: AC50
Voltage-gated inwardly rectifying potassium channel KCNH2, sequence (Q12809 whole entry): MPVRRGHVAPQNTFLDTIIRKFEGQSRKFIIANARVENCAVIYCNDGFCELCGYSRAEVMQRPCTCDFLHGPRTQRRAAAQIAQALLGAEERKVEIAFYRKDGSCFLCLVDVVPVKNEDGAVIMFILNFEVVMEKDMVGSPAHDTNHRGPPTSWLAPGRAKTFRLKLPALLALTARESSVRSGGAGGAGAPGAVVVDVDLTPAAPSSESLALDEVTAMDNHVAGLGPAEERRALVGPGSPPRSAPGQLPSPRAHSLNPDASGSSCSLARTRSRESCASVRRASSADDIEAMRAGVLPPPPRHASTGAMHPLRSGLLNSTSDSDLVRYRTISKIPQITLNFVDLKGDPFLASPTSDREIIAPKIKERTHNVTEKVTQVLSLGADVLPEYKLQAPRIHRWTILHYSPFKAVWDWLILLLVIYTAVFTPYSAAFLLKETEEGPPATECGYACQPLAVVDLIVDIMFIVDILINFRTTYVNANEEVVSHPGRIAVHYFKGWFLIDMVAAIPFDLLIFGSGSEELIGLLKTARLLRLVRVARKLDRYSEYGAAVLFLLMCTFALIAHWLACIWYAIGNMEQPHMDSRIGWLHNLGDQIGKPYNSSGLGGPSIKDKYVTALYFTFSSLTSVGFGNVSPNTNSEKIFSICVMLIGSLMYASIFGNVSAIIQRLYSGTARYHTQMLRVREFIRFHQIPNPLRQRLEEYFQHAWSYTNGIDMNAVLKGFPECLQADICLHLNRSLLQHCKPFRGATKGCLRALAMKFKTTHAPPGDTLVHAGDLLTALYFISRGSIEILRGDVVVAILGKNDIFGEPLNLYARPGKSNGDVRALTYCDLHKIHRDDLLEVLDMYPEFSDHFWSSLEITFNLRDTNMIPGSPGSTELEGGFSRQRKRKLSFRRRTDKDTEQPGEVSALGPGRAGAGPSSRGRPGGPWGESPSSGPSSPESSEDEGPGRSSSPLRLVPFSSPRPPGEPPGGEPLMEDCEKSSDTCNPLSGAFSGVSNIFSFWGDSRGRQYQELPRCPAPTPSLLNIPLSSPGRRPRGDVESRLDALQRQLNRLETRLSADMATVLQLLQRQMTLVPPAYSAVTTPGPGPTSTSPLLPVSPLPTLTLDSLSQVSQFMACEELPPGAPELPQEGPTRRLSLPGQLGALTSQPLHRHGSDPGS

[7] = target: T5, Type-1 angiotensin II receptor (Homo sapiens, UniProt P30556)
T5 sequence (P30556 whole entry): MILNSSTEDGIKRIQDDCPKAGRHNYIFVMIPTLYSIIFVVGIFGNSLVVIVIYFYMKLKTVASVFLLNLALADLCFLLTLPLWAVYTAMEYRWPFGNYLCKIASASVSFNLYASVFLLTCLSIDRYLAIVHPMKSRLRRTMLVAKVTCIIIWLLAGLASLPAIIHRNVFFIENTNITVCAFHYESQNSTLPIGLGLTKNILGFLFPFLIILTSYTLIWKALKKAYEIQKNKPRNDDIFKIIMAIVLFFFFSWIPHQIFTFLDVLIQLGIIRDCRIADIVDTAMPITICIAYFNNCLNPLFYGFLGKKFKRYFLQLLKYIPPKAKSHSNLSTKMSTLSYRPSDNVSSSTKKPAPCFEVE

[8] = target: 5-hydroxytryptamine receptor 2B (Homo sapiens, UniProt P41595); type: functional, cell-based
5-hydroxytryptamine receptor 2B, sequence (P41595 whole entry): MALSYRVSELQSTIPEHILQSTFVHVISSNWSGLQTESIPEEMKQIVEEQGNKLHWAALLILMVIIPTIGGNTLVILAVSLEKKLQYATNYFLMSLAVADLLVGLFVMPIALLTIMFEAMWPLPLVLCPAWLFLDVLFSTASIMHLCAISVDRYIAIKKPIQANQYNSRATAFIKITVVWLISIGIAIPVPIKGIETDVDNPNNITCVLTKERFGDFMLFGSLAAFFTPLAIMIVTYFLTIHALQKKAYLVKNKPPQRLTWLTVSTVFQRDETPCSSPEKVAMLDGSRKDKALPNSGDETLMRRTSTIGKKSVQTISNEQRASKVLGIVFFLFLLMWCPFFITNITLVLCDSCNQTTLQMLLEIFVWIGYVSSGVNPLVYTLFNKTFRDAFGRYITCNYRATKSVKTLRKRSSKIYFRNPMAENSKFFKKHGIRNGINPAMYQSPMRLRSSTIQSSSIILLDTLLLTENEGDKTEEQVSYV

Adenosine receptor A1 = target: T6, Adenosine receptor A1 (Homo sapiens, UniProt P30542)
T6 sequence (P30542 whole entry): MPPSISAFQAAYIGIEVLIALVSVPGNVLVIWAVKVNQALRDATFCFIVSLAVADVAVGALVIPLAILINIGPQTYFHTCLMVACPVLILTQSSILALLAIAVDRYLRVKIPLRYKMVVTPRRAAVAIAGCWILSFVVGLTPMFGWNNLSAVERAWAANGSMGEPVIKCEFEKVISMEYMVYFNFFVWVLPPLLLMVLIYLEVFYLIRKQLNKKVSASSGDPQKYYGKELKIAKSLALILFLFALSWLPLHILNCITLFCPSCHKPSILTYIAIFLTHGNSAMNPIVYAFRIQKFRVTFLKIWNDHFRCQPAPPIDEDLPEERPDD

D(1A) dopamine receptor = D(1A) dopamine receptor (Homo sapiens, UniProt P21728); type: functional, cell-based
D(1A) dopamine receptor, sequence (P21728 whole entry): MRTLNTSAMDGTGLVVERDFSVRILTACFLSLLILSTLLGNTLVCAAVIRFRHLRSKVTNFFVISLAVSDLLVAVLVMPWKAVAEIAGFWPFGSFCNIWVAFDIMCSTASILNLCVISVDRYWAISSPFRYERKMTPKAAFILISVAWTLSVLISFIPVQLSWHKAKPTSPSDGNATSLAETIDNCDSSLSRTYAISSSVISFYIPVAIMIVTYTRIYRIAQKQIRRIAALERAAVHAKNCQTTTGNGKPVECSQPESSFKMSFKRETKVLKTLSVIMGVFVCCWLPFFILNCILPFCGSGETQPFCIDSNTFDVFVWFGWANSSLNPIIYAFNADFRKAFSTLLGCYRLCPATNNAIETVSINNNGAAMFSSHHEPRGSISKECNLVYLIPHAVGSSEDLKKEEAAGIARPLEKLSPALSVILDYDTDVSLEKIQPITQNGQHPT
Also: assay procedure not described here.

Row | Structure (SMILES) | AC50 (Adenosine receptor A3) [µM] | AC50 [1] [µM] | AC50 (Adenosine receptor A2a) [µM] | AC50 [2] [µM] | AC50 [3] [µM] | AC50 (Bile salt export pump) [µM] | AC50 [4] [µM] | AC50 [5] [µM] | AC50 (Melanocortin receptor 3) [µM] | AC50 [6] [µM] | AC50 [7] [µM] | AC50 [8] [µM] | AC50 (Adenosine receptor A1) [µM] | AC50 (D(1A) dopamine receptor) [µM]
1 | CC(C)/N=c1\cc2n(-c3ccc(Cl)cc3)c3ccccc3nc-2cc1Nc1ccc(Cl)cc1 [CLOFAZIMINE] | > 30 | > 30 | > 30 | 17.5 | > 30 | 12 | > 30 | 0.92 | > 30 | 0.958 | > 30 | > 30 | > 30 | > 30
2 | CCOCC(O)COc1ccc(NC(=O)CC[S+](C)C)cc1 (stereo not drawn) | > 30 | > 30 | > 30 | > 30 | > 30 | > 300 | > 30 | > 30 | > 30 | > 30 | > 30 | > 30 | > 30 | > 30
3 | CN(C)CCC=C1c2ccccc2CCc2ccccc21 [AMITRIPTYLINE] | 14.1 | 8.7 | > 30 | > 30 | 9.1 | 180 | > 10 | > 30 | 23 | – | 1.4 | – | > 30 | > 10
4 | CN(C)CCCC1(c2ccc(F)cc2)OCc2cc(C#N)ccc21 (stereo not drawn) [CITALOPRAM] | > 30 | > 30 | > 30 | > 30 | > 10 | > 300 | > 10 | > 30 | > 30 | – | > 30 | > 30 | > 30 | –
5 | CO[C@@H]1[C@@H](OC(N)=O)[C@@H](O)[C@H](Oc2ccc3c(O)c(NC(=O)c4ccc(O)c(CC=C(C)C)c4)c(=O)oc3c2C)OC1(C)C [NOVOBIOCIN] | > 30 | > 30 | > 30 | > 30 | > 30 | 220 | > 30 | > 30 | > 30 | – | > 30 | > 30 | > 30 | > 30
6 | CCC[C@@]1(CCc2ccccc2)CC(O)=C([C@H](CC)c2cccc(NS(=O)(=O)c3ccc(C(F)(F)F)cn3)c2)C(=O)O1 | 6.4 | > 30 | > 30 | 29 | 8.6 | 3.2 | > 30 | > 30 | > 30 | – | 11 | > 30 | > 30 | > 30
7 | C[C@H](CS)C(=O)N1CCC[C@H]1C(=O)O [CAPTOPRIL] | > 30 | > 30 | > 30 | > 30 | > 10 | > 300 | > 30 | > 30 | > 30 | – | > 30 | > 10 | > 30 | > 30
8 | C[C@H](Nc1ncnc2[nH]cnc12)c1cc2cccc(Cl)c2c(=O)n1-c1ccccc1 [DUVELISIB] | > 30 | > 30 | > 30 | > 30 | > 30 | 45 | > 30 | > 30 | > 30 | – | > 30 | > 30 | > 30 | > 30
9 | CC(=O)NC[C@H]1CN(c2ccc(N3CCOCC3)c(F)c2)C(=O)O1 [LINEZOLID] | > 30 | > 30 | > 30 | > 30 | > 30 | > 300 | > 30 | > 30 | > 30 | > 30 | > 30 | – | > 30 | –
10 | CN1CC2c3ccccc3Oc3ccc(Cl)cc3C2C1 (stereo not drawn) [ASENAPINE] | > 30 | 18 | > 30 | > 30 | 0.079 | 270 | > 10 | 24 | > 30 | – | > 30 | > 30 | > 30 | > 30
11 | Cn1cnc2c(F)c(Nc3ccc(Br)cc3F)c(C(=O)NOCCO)cc21 [BINIMETINIB] | > 30 | > 30 | > 30 | > 30 | > 30 | 87 | > 30 | > 30 | > 30 | – | > 30 | > 30 | > 30 | > 30
12 | OCCOCCN1CCN(C(c2ccccc2)c2ccc(Cl)cc2)CC1 (stereo not drawn) [HYDROXYZINE] | > 30 | > 30 | > 30 | > 30 | > 10 | 270 | > 10 | > 30 | > 30 | – | > 30 | > 10 | > 30 | > 10
13 | Nc1nnc(-c2cccc(Cl)c2Cl)c(N)n1 [LAMOTRIGINE] | > 30 | > 30 | > 30 | > 30 | > 10 | > 300 | > 10 | > 30 | > 30 | – | > 30 | > 10 | > 30 | > 30
